In patent US20260284069A1, “PARG INHIBITORY COMPOUNDS” (FoRx Therapeutics AG, priority 2023, published 2026) one finds EC50 and IC50 data, which are given here for one compound.

In one experiment the target is T1, PARG (Homo sapiens, UniProt Q86W56).
T1 construct: endogenous in cells; host or cells: U2OS
Nature of the experiment: Cellular PAR chain assay. The experiment is classed as cell-based. The note with it: U2OS cells, 1 hour compound pretreatment then 1-hour TMZ treatment; % PAR chain positive cells by flow cytometry; read-out: EC50 determined in cellular PAR chain assay. The method, then: The ability of compounds to inhibit PARG in response to DNA damage, was assessed with U2OS cells pretreated with the compounds for 1 hour, following a 1-hour treatment with the DNA alkylating agent temozolomide (TMZ). […] The cells were incubated for 2 hours at room temperature with a mouse monoclonal antibody against poly (ADP) ribose (PAR) polymer. The cells were washed and incubated with an anti-mouse Alexa-488 conjugated secondary antibody for 1 hour at room temperature. Propidium iodide staining was used to determine DNA content in the cells (staining at 4° C. overnight). The fluorescence intensity of the cells was assessed by flow cytometry (Cytoflex from Beckmann) and the percentage of PAR chain positive cells (gated in relation to TMZ+DMSO treated control) was determined. PAR chain positive cells % were fit against the concentration of the compound using a 4 parameter log-logistic function, generating PAR chain EC50 values: […]

The target in another experiment is T2, human PARG (Homo sapiens, UniProt Q86W56, A967T/C963S/D927K/H446G/I916T/L447S/L473S/M841I/N479S/R811K/S802A/S858P/T924D).
T2 construct: human PARG (448-976 [H446G, L447S, L473S); 6His-TwinStrep (protease-cleavable) (N, cleaved yes); Gly-Ser at positions 446-447, given as H446G, L447S; host or cells: E. coli BL21 (DE3)
Nature of the experiment: PARG enzymatic IC50 assay. The format is biochemical. The note with it: PARG protein, 2 hours incubation; substrate ADP-ribose-pNP, absorbance 405 nm; read-out: IC50 determined in PARG enzymatic assay. The method, then: A codon optimized gene encoding human PARG (448-976 [H446G, L447S, L473S, N479S, S802A, R811K, M841I, S858P, I916T, T924D, D927K, C963S, A967T]) was synthesized by Genscript, and cloned into pET15b (NcoI/BamHI) with an N-terminal, […] protease cleavable 6His-TwinStrep tag. Expression of the protein in E. coli BL21 (DE3) was induced by addition of 0.2 mM IPTG to a shake flask culture grown to OD600=0.8 at 37° C. Growth was allowed to continue at 30° C. for a further 20 hours before harvesting by centrifugation and storage of the cell pellet at −80° C.
Protein was purified by IMAC and SEC: frozen cell pellets (typically 40 g wet weight) were resuspended by homogenization in 5 volumes buffer A (25 mM Tris/HCl pH 8.0, 200 mM NaCl, 2 mM DTT), supplemented with 1 mg of DNase I from bovine pancreas (Sigma-Aldrich) and protease inhibitors (Roche Complete™ EDTA-free protease inhibitor tablet), and lysed by passage through a Constant Systems BasicZ homogenizer. The lysate was clarified by centrifugation for 60 minutes at 25,000 g, 4° C., and the lysate supernatant was loaded onto 5 ml StrepTrap HP (Cytiva) pre-equilibrated with buffer A. The column was washed with buffer A (~10 CV), then buffer B containing 1M KCl (~5 CV), and then the protein was eluted with buffer A containing 2.5 mM d-Desthiobiotin. Pooled fractions containing 6HisTwinStrep-TEV-hPARG were incubated with TEV protease overnight at 4° C. hPARG was separated from uncleaved material and […] protease through gel filtration with Superdex75 sizing column (GE Healthcare) pre-equilibrated with SEC buffer (15 mM Tris/HCl pH 8.5, 100 mM NaCl, 2 mM DTT). Pooled fractions containing pure hPARG were concentrated using a 10 k MWCO spin concentrator (VivaSpin) to 10 mg/mL, and then either used immediately for crystallisation or snap-frozen in liquid nitrogen for storage at −80° C.
PARG enzyme as incubated with compound or vehicle (DMSO) for 2 hours in a 384 well plate. After adding the PARG substrate ADP-ribose-pNP, the plate was read for absorbance intensity at 405 nm. The vehicle (DMSO) with high absorbance intensity represents no inhibition of enzymatic reaction while the low control (no enzyme) with low absorbance intensity represents full inhibition of enzymatic reaction.
• hPARG: Peak Protein, 30 nM • Substrate: ADP-pNP, 800 μM, Jena Bioscience catalog #NU-955 • Reaction time: 60 minutes • Assay buffer: 50 mM Tris-HCl pH 8.0, 100 mM NaCl, 2 mM DTT • Temperature: 30° C. • Total volume: 30 μL
• 0% inhibition control: DMSO • 100% inhibition control: No enzyme
The protocol that was used for enzyme reaction and detection is as follows: • 1. Transfer 100 nL of the final concentration of test compounds or vehicle (DMSO) to the appropriate wells of a microtiter plate. • 2. Centrifuge the plate at 1000 rpm for 1 minute. • 3. Transfer 14.6 μL of 2× final concentration of enzyme in assay buffer or assay buffer alone to the appropriate wells. • 4. Centrifuge the plate at 1000 rpm for 1 minute. • 5. Incubate the plate at room temperature for 15 minutes or 2 hours. • 6. Transfer 15.4 μL of 2× substrate in assay buffer to all the test wells. • 7. Centrifuge the plate at 1000 rpm for 1 minute. • 8. Read the plate on a plate reader (e.g., Spark Tecan).

A further experiment has as its system NCIH-460 cells. Nature of the experiment: Cellular viability assay (NCIH-460, PARG-inhibition sensitive cell line). The note with it: Homo sapiens, NCI-H460, 96 h, 96 hours incubation, Cell Titer-Glo, read-out: EC50 determined in NCIH-460 cells, cellular viability assay. The format is cell-based. On the procedure: (§1) NCIH-460 as a PARG-inhibition sensitive cell line and U2OS as PARG-inhibition insensitive cell line were plated at 1000 cells/well and 2000 cells/well, respectively, in 96-well white plates with clear flat bottom. After 24 hours, the compounds were added with the Tecan digital dispenser (D300e), in duplicates. The outer wells of the plate were excluded. After 96 hours of incubation, 150 μl of the growth medium were removed and 50 μl of Cell Titer-Glo (Promega) were added per well. Following an incubation of 10 minutes, luminescence was read using a plate reader (Tecan). Averaged values of the samples were normalized to DMSO treated control samples. Curves were fit as % of the control vs. log of the compound concentration using a 4 parameter log-logistic function: […]

The subject of the next experiment is U2OS cells. The experiment is described as follows: Cellular viability assay (U2OS, PARG-inhibition insensitive cell line). The experiment is classed as cell-based. The note with it: Homo sapiens, U2OS, 96 h, 96 hours incubation, Cell Titer-Glo, read-out: EC50 determined in U2OS cells, cellular viability assay. The method, then: as §1

T1 sequence (Q86W56 whole entry): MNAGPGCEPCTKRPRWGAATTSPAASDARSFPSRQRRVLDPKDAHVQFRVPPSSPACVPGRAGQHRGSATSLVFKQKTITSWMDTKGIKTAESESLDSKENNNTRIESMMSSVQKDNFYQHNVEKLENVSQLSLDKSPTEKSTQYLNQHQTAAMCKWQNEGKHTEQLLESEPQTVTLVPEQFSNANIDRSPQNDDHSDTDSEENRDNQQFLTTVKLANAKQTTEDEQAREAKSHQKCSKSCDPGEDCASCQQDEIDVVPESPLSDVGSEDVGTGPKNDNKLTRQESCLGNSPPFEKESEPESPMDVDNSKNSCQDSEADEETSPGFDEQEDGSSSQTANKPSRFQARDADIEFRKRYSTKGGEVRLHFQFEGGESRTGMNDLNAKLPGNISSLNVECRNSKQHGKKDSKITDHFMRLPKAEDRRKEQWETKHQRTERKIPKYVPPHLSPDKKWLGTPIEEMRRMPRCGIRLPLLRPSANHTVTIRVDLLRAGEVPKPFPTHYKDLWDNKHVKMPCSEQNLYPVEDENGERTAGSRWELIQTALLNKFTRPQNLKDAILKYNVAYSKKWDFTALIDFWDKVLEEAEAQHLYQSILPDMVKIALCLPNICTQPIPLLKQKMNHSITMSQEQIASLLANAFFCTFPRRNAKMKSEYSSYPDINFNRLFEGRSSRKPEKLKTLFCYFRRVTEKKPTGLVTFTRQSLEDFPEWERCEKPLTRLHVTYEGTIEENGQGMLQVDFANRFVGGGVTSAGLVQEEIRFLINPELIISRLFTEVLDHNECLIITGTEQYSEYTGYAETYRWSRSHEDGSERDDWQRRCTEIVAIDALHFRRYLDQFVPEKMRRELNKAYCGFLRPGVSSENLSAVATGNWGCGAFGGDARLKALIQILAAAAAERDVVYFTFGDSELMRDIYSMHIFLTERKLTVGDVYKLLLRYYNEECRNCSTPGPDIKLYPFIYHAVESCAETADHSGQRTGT
T2 sequence (Q86W56 446-976 H446G/L447S/L473S/N479S/S802A/R811K/M841I/S858P/I916T/T924D/D927K/C963S/A967T): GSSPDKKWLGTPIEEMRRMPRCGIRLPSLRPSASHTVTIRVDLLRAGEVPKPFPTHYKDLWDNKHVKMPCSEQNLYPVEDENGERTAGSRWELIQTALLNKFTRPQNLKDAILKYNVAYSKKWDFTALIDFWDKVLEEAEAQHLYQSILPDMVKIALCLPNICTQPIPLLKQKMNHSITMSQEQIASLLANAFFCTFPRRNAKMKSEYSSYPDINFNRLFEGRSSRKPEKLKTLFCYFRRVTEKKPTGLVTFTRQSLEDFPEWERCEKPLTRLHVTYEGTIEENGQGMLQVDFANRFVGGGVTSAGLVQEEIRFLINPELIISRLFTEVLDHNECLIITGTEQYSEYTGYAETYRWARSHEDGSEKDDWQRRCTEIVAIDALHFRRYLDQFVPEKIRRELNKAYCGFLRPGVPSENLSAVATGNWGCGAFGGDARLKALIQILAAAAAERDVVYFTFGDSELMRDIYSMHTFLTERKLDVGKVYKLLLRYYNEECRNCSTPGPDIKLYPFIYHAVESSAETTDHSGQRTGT

With `C[C@H]1CN(c2cc(S(=O)(=O)NC3(C)CC3)cn3c(-c4nnc(C(F)F)s4)nc(F)c23)C[C@H](C)N1` [Example 13, 3-(5-(difluoromethyl)-1,3,4-thiadiazol-2-yl)-8-((3S,5S)-3,5-dimethylpiperazin-1-yl)-1-fluoro-N-(1-methylcyclopropyl)imidazo[1,5-a]pyridine-6-sulfonamide], the EC50 on PARG is 5 nM; with NCIH-460 cells, 35 nM; with U2OS cells, 3590 nM. The IC50 at human PARG stood at 16 nM.
